Test results reported in US9266904B2, “6-bridged heteroaryldihydropyrimidines for the treatment and prophylaxis of hepatitis B virus infection” (priority 2013, dated 2016).
Where two headings read alike, the source gives them in different places.

Key:
[1] = Human microsomal clearance assay; type: in vitro ADME; conditions: human, 1 μM, pH 7.4
Experimental: Microsomes were preincubated with test compound for 10 minutes at 37° C. in 100 mM phosphate buffer with pH 7.4. The reactions were initiated by adding NADPH regenerating system to give a final incubation volume of 400 μL. The incubations finally contained 1 μM test compound, 0.5 mg/mL liver microsomal protein, 3.0 mM glucose 6-phosphate, 1.0 mM NADP, 3.0 mM MgCl2 and 0.05 mg/mL glucose 6-phosphate dehydrogenase in 100 mM phosphate buffer with pH 7.4. After incubation times of 0, 3, 6, 9, 15 and 30 minutes, 50 μL, incubation was transferred to the quench solution containing the internal standard which was 2 μM tolbutamide. After precipitation and centrifugation, test compound concentrations in the samples were determined by LC-MS/MS. Controls of no NADPH regenerating system at zero and 30 minutes were also prepared and analyzed.

[2] = system: HBV replication in HepG2.2.15 cells; assay: Anti-HBV activity in vitro in HepG2.2.15 cells (extracellular HBV DNA by qPCR); type: cell-based; conditions: read-out: EC50
From the text: HepG2.2.15 and HepDE19 are stably-transfected cell lines containing the HBV genome. Both cell lines are derived from the hepatoblastoma cell line Hep G2 (American Type Culture Collection, ATCC® HB-8065™) by the published procedures described in references: M A Selles et al. Proc. Natl. Acad. Sci. USA 1987, 84, 1005-1009 and H Guo et al. Journal of Virology 2007, 81, 12472-12484, respectively. Both cell lines were maintained in Dulbecco's modified Eagle's medium (DMEM)-F12 medium supplemented with 10% fetal bovine serum, 100 U/mL penicillin, 100 μg/mL streptomycin, and 0.5 mg/mL of G418.
While HepG2.2.15 cells constitutively support HBV replication and production of virus particles, HepDE19 cells are inducible by tetracycline. Addition of 1 μg/mL tetracycline in culture medium suppresses HBV replication in HepDE19 cells, whereas switching to tetracycline-free medium resumes this process.
HepG2.2.15 cells were seeded into 96-well plates (3×10^4 cells in 100 μL media per well) and incubated overnight at 37° C. The test compounds were serially half-log diluted in DMSO, then diluted 100 times in culture media. 100 μL diluted compounds were added into the plates to reach 0.5% final concentration of DMSO in every well. Five days after compound treatment, culture supernatant was collected for further analysis.
For quantitative PCR detection of extracellular HBV DNA, 100 μL culture supernatant was collected and processed in MagNA Pure 96 Nucleic Acid Purification System (Roche Applied Science) for viral DNA extraction. The extracted samples were subjected to HBV DNA quantification by qPCR. The effective compound concentration at which HBV replication is inhibited by 50% (EC50) was determined.
The Examples were tested in the above assays as described herein and found to have EC50<1 μM in HepG2.2.15 assay.

[3] = Hepatitis B virus, HepG2.2.15, Anti-HBV activity in HepG2.2.15 cells

| Structure (SMILES) | CLh [1] [mL/min/kg] | EC50 [2, 3] [nM] | EC50 ([2]; Anti-HBV activity in HepG2.2.15 cells) [nM] |
| --- | --- | --- | --- |
| COC(=O)C1=C(CN2[C@H]3C[C@@H](CC(=O)O)C[C@@H]2C(F)(F)C3)NC(c2nccs2)=N[C@H]1c1cccc(F)c1Cl [Example 89, 2-[(1S,3R,5R)-8-[[(4R)-4-(2-chloro-3-fluoro-phenyl)-5-methoxycarbonyl-2-thiazol-2-yl-1,4-dihydropyrimidin-6-yl]methyl]-6,6-difluoro-8-azabicyclo[3.2.1]octan-3-yl]acetic acid] | 0 | 30.5 | – |
| COC(=O)C1=C(CN2C3COCC2CC(OC(C)=O)C3)NC(c2nccs2)=N[C@H]1c1ccc(F)cc1Cl (stereo partly drawn) [Example 8, (R)-6-(7-Acetoxy-3-oxa-9-aza-bicyclo[3.3.1]non-9-ylmethyl)-4-(2-chloro-4-fluoro-phenyl)-2-thiazol-2-yl-1,4-dihydro-pyrimidine-5-carboxylic acid methyl ester] | 0 | – | – |
| COC(=O)C1=C(CN2C3COCC2CN(C(=O)CO)C3)NC(c2nccs2)=N[C@H]1c1ccc(F)cc1Cl [Example 21, (R)-4-(2-Chloro-4-fluoro-phenyl)-6-[7-(2-hydroxy-acetyl)-3-oxa-7,9-diaza-bicyclo[3.3.1]non-9-ylmethyl]-2-thiazol-2-yl-1,4-dihydro-pyrimidine-5-carboxylic acid methyl ester] | 4.3 | 20 | – |
| COC(=O)C1=C(CN2[C@@H]3COC[C@H]2C[C@@H](NC(N)=O)C3)NC(c2nccs2)=N[C@H]1c1ccc(F)cc1Cl [Example 57, Methyl (4R)-4-(2-chloro-4-fluoro-phenyl)-2-thiazol-2-yl-6-[[(1S,5R)-7-endo-ureido-3-oxa-9-azabicyclo[3.3.1]nonan-9-yl]methyl]-1,4-dihydropyrimidine-5-carboxylate] | 5.0 | 21.9 | – |
| COC(=O)C1=C(CN2[C@@H]3C[C@H](CC(=O)O)C[C@H]2C(F)(F)C3)NC(c2nccs2)=N[C@H]1c1ccc(Cl)c(F)c1 [Example 96, 2-[(1R,3S,5S)-8-[[(4S)-4-(4-chloro-3-fluoro-phenyl)-5-methoxycarbonyl-2-thiazol-2-yl-1,4-dihydropyrimidin-6-yl]methyl]-6,6-difluoro-8-azabicyclo[3.2.1]octan-3-yl]acetic acid] | 1.8 | 6.8 | – |
| COC(=O)C1=C(CN2[C@H]3C[C@@H](CC(=O)O)C[C@@H]2C(F)(F)C3)NC(c2nccs2)=N[C@H]1c1ccccc1Cl [Example 91, 2-[(1S,3R,5R)-8-[[(4R)-4-(2-chlorophenyl)-5-methoxycarbonyl-2-thiazol-2-yl-1,4-dihydropyrimidin-6-yl]methyl]-6,6-difluoro-8-azabicyclo[3.2.1]octan-3-yl]acetic acid] | 5.1 | 90.7 | – |
| COC(=O)C1=C(CN2C3CC(F)(F)C2C[C@](O)(CC(=O)O)C3)NC(c2nccs2)=N[C@H]1c1ccc(F)cc1Cl (single isomer, unassigned) [Example 117] | 1.8 | 40.2 | – |
| COC(=O)C1=C(CN2C3CCC2CN(C(C)=O)C3)NC(c2nccs2)=N[C@H]1c1ccc(F)cc1Cl [Example 122, Methyl (4R)-6-[(3-acetyl-3,8-diazabicyclo[3.2.1]octan-8-yl)methyl]-4-(2-chloro-4-fluoro-phenyl)-2-thiazol-2-yl-1,4-dihydropyrimidine-5-carboxylate] | 7.0 | 77.4 | – |
| COC(=O)C1=C(CN2C3COCC2C(F)C3)NC(c2nccs2)=N[C@H]1c1ccc(F)cc1Cl (stereo partly drawn) [Example 51, Methyl (4R)-4-(2-chloro-4-fluoro-phenyl)-6-[(6-fluoro-3-oxa-8-azabicyclo[3.2.1]octan-8-yl)methyl]-2-thiazol-2-yl-1,4-dihydropyrimidine-5-carboxylate] | – | 14.9 | – |
| COC(=O)C1=C(CN2C3COCC2c2c(C)n[nH]c2C3)NC(c2nccs2)=N[C@H]1c1ccc(F)cc1Cl (stereo partly drawn) [Example 32, (R)-4-(2-Chloro-4-fluoro-phenyl)-6-(3-methyl-10-oxa-4,5,12-triaza-tricyclo[6.3.1.0*2,6*]dodeca-2(6),3-dien-12-ylmethyl)-2-thiazol-2-yl-1,4-dihydro-pyrimidine-5-carboxylic acid methyl ester] | – | 32 | – |
| COC(=O)C1=C(CN2C3COCC2CC(CC(=O)O)C3)NC(c2nccs2)=NC1c1ccc(F)c(F)c1 (stereo not drawn) [Example 27, 6-(7-Carboxymethyl-3-oxa-9-aza-bicyclo[3.3.1]non-9-ylmethyl)-4-(3,4-difluoro-phenyl)-2-thiazol-2-yl-1,4-dihydro-pyrimidine-5-carboxylic acid methyl ester] | – | 254 | – |
| CCOC(=O)C(C)(C)N1CC2COCC(C1)N2CC1=C(C(=O)OC)[C@H](c2ccc(F)cc2Cl)N=C(c2nccs2)N1 [Example 20, (R)-4-(2-Chloro-4-fluoro-phenyl)-6-[7-(1-ethoxycarbonyl-1-methyl-ethyl)-3-oxa-7,9-diaza-bicyclo[3.3.1]non-9-ylmethyl]-2-thiazol-2-yl-1,4-dihydro-pyrimidine-5-carboxylic acid methyl ester] | – | 35 | – |
| COC(=O)C1=C(CN2C3COCC2CC(O)C3)NC(c2nccs2)=N[C@H]1c1ccc(F)cc1Cl (stereo partly drawn) [Example 9, (R)-4-(2-Chloro-4-fluoro-phenyl)-6-(7-hydroxy-3-oxa-9-aza-bicyclo[3.3.1]non-9-ylmethyl)-2-thiazol-2-yl-1,4-dihydro-pyrimidine-5-carboxylic acid methyl ester] | – | – | 14 |
| COC(=O)C1=C(CN2C3COCC2C(O)C3)NC(c2nccs2)=N[C@H]1c1ccc(F)cc1Cl (mixture of isomers) [Example 49, Methyl (4R)-4-(2-chloro-4-fluoro-phenyl)-6-[(6-hydroxy-3-oxa-8-azabicyclo[3.2.1]octan-8-yl)methyl]-2-thiazol-2-yl-1,4-dihydropyrimidine-5-carboxylate] | – | 17.2 | – |
| COC(=O)C1=C(CN2CC3CC2C(F)(F)C3)NC(c2nccs2)=N[C@H]1c1ccc(F)cc1Cl (stereo partly drawn) [Example 144, Methyl (4R)-4-(2-chloro-4-fluoro-phenyl)-6-[(5,5-difluoro-3-azabicyclo[2.2.1]heptan-3-yl)methyl]-2-thiazol-2-yl-1,4-dihydropyrimidine-5-carboxylate] | – | 94 | – |
| CCOC(=O)C1=C(CN2C3COCC2CC(N)(C(=O)O)C3)NC(c2nccs2)=N[C@H]1c1cccc(F)c1F (stereo partly drawn) [Example 140, 7-amino-9-[[(4R)-4-(2,3-difluorophenyl)-5-ethoxycarbonyl-2-thiazol-2-yl-1,4-dihydropyrimidin-6-yl]methyl]-3-oxa-9-azabicyclo[3.3.1]nonane-7-carboxylic acid] | – | 103 | – |
| COC(=O)C1=C(CN2C3COCC2C(F)c2oncc23)NC(c2nccs2)=N[C@H]1c1ccc(F)cc1Cl (stereo partly drawn) [Example 106, (4R)-4-(2-Chloro-4-fluoro-phenyl)-6-(7-fluoro-5,10-dioxa-4,12-diaza-tricyclo[6.3.1.0*2,6*]dodeca-2(6),3-dien-12-ylmethyl)-2-thiazol-2-yl-1,4-dihydropyrimidine-5-carrboxylic acid methyl ester] | – | 8.5 | – |
| CCOC(=O)C1=C(CN2C3COCC2CC(N)(C(=O)O)C3)NC(c2nccs2)=N[C@H]1c1ccc(F)cc1Br (stereo partly drawn) [Example 141, 7-amino-9-[[(4R)-4-(2-bromo-4-fluoro-phenyl)-5-ethoxycarbonyl-2-thiazol-2-yl-1,4-dihydropyrimidin-6-yl]methyl]-3-oxa-9-azabicyclo[3.3.1]nonane-7-carboxylic acid] | – | 271 | – |
| COC(=O)C1=C(CN2C3COCC2CC(C(=O)OC)C3)NC(c2nccs2)=N[C@H]1c1ccc(F)cc1Br (stereo partly drawn) [Example 4, 9-[(R)-6-(2-Bromo-4-fluoro-phenyl)-5-methoxycarbonyl-2-thiazol-2-yl-3,6-dihydro-pyrimidin-4-ylmethyl]-3-oxa-9-aza-bicyclo[3.3.1]nonane-7-carboxylic acid methyl ester] | – | 39 | – |
| COC(=O)C1=C(CN2C3COCC2CC(C(O)C(=O)OC)C3)NC(c2nccs2)=N[C@H]1c1ccc(F)cc1Cl (stereo partly drawn) [Example 30, (R)-4-(2-Chloro-4-fluoro-phenyl)-6-[7-(hydroxy-methoxycarbonyl-methyl)-3-oxa-9-aza-bicyclo[3.3.1]non-9-ylmethyl]-2-thiazol-2-yl-1,4-dihydro-pyrimidine-5-carboxylic acid methyl ester] | – | 11 | – |
